By Ki is commonly meant a dissociation constant, usually derived from enzyme kinetics or from competition with a known ligand.

One assay deals with T1, human MR (Homo sapiens, UniProt P08235).
T1 construct: The full length human MR gene is cloned from a human kidney or human brain cDNA library; His tag from the pAcHLT vector (own knowledge); made in house; host or cells: Sf9 insect cells (baculovirus, pAcHLT transfer vector)
T1 sequence (P08235 1-984): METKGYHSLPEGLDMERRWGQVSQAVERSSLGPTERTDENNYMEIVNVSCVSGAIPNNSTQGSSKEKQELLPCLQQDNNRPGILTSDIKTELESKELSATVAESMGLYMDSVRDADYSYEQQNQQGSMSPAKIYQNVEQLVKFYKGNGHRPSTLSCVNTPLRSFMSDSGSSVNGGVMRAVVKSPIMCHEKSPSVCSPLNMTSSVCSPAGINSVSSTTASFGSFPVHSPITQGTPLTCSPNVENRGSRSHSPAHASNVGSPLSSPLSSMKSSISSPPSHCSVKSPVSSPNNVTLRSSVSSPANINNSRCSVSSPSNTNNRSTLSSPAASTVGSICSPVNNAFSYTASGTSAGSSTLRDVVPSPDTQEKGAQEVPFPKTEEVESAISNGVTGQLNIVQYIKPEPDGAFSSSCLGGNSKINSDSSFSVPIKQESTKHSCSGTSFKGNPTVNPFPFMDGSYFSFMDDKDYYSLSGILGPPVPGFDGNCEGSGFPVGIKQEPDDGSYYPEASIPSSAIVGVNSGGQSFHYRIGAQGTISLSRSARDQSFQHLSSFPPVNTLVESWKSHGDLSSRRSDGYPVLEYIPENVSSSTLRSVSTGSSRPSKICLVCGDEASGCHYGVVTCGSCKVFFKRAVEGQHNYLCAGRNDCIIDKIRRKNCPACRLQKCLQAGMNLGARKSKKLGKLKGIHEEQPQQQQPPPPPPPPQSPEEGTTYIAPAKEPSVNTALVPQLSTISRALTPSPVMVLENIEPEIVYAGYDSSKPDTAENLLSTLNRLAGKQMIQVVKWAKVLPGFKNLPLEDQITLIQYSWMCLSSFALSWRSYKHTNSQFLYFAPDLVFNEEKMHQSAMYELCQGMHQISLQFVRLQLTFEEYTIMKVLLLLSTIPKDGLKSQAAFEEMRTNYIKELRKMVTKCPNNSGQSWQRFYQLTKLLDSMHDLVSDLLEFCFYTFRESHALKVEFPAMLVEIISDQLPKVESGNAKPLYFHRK
Briefly: Mineralocorticoid Receptor Binding Assay ([3H]-aldosterone). Conditions: [3H]-aldosterone binding, human MR expressed in Sf9 cells; read-out: MR Ki. In a few lines: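 Lysate supernatant of Sf9 cells expressing full-length human MR (20-25 μg protein) was incubated with 0.5 nM [3H]-aldosterone and test compound in molybdate/Tris/phosphate/glycerol buffer, pH 7.5, ~16 h at 4 °C. Bound ligand was filtered and counted by scintillation; IC50 is the concentration halving [3H]-aldosterone binding.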

The next assay deals with T2, glucocorticoid receptor (Homo sapiens, UniProt P04150).
T2 construct: containing 50-200 ug of A549 cell extract and 1.86 nM [^3H]-dexamethasone; host or cells: A549 human lung epithelial cells (sonicated cell extract)
T2 sequence (P04150 1-777): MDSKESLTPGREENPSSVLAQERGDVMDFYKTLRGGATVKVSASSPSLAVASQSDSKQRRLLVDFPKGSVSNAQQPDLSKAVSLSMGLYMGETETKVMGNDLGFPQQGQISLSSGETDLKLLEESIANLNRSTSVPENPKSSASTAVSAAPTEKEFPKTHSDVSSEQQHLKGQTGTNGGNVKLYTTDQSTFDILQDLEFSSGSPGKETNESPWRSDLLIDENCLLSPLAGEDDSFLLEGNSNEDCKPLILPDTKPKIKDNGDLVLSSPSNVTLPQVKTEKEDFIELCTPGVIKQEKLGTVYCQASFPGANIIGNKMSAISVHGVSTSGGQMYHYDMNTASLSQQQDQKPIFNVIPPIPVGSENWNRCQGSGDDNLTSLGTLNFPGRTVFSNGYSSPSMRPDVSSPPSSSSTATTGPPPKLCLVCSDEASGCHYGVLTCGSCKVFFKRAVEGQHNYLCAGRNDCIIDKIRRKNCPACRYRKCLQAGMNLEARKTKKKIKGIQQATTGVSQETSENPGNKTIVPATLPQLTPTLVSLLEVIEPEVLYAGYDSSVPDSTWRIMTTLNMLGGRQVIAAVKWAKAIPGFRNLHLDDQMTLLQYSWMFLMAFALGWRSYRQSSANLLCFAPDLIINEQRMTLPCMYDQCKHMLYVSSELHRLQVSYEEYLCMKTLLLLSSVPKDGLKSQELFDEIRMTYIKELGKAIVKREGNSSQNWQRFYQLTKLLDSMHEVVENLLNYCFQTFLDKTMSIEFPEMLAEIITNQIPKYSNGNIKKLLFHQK
As to the kind of experiment: Glucocorticoid Receptor Binding Assay ([3H]-dexamethasone, A549 cell extract). Conditions: [3H]-dexamethasone binding, read-out: GR Ki. The method in brief:
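A549 cell extract (50–200 ug) incubated with 1.86 nM [3H]-dexamethasone and test compound for 16 h at 4 °C in Tris-HCl pH 7.2 buffer with glycerol and molybdate. Unbound radioligand removed by dextran-coated charcoal, then supernatant bound counts measured by scintillation.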

For `O=c1[nH]c2cc(/C=C3/c4ccccc4CCc4c(Cl)cccc43)ccc2o1` [Example 221(a)], the inhibition constant Ki on human MR and on glucocorticoid receptor was less than 0.5 µM in each case.
Take `O=c1[nH]c2cc(/C=C3\c4ccccc4CCc4c(Cl)cccc43)ccc2o1` [Example 221(b)]: the Ki at human MR and at glucocorticoid receptor was less than 0.5 µM throughout.
Regarding `O=c1[nH]c2cc(C=C3c4ccccc4CCc4cc(Cl)ccc43)ccc2o1` [Example 222(a), 5-(2-Chloro-10,11-dihydro-dibenzo[a,d]cyclohepten-5-ylidenemethyl)-3H-benzooxazol-2-one], the Ki on human MR and on glucocorticoid receptor was less than 0.5 µM in each case.
For `O=c1[nH]c2ccc(C=C3c4ccccc4CCc4ccccc43)cc2[nH]1` [Example 223, 5-(10,11-Dihydro-dibenzo[a,d]cyclohepten-5-ylidenemethyl)-l,3-dihydro-benzoimidazol-2-one], the Ki was less than 0.5 µM on human MR and less than 10 µM at glucocorticoid receptor.
In the same order, the values of `O=C1Cc2c(C=C3c4ccccc4CCc4ccccc43)cccc2N1` [Example 224, 4-(10,11-Dihydro-dibenzo[a,d]cyclohepten-5-ylidenemethyl)-1,3-dihydro-indol-2-one] are less than 0.5 µM and less than 0.5 µM.
In the case of `C(=C1c2ccccc2CCc2ccccc21)c1ccccc1-c1cnccn1` [Example 225, 2-[2-(10,11-Dihydro-dibenzo[a,d]cyclohepten-5-ylidenemethyl)-phenyl]-pyrazine], the figures for the inhibition constant (Ki) at human MR and at glucocorticoid receptor were less than 0.5 µM and less than 10 µM, respectively.
In the same order, the values of `C(=C1c2ccccc2CCc2ccccc21)c1ccccc1-c1ccccn1` [Example 227, 2-[2-(10,11-Dihydro-dibenzo[a,d]cyclohepten-5-ylidenemethyl)-phenyl]-pyridine] are less than 0.5 µM and less than 1 µM.
As for `C(=C1c2ccccc2CCc2ccccc21)c1ccccc1-c1cccnc1` [Example 228, 3-[2-(10,11-Dihydro-dibenzo[a,d]cyclohepten-5-ylidenemethyl)-phenyl]-pyridine], the Ki at human MR is less than 0.5 µM; at glucocorticoid receptor, less than 1 µM.
In the same order, the values of `C(=C1c2ccccc2CCc2ccccc21)c1cccc(-c2ccn[nH]2)c1` [Example 229, 5-[3-(10,11-Dihydro-dibenzo[a,d]cyclohepten-5-ylidenemethyl)-phenyl]-1H-pyrazole] are less than 0.5 µM and less than 1 µM.
In the same order, the values of `Nc1cccc(C=C2c3ccccc3CCc3ccccc32)n1` [Example 230, 6-(10,11-Dihydro-dibenzo[a,d]cyclohepten-5-ylidenemethyl)-pyridin-2-ylamine] are less than 1 µM and less than 10 µM.
In the same order, the values of `CS(=O)(=O)Nc1cccc(C=C2c3ccccc3CCc3ccccc32)n1` [Example 231, N-[6-(10,11-Dihydro-dibenzo[a,d]cyclohepten-5-ylidenemethyl)-pyridin-2-yl]-methanesulfonamide] are less than 0.5 µM and less than 0.5 µM.
For the compound `CS(=O)(=O)Nc1cncc(C=C2c3ccccc3CCc3ccccc32)n1` [Example 233, N-[6-(10,11-Dihydro-dibenzo[a,d]cyclohepten-5-ylidenemethyl)-pyrazin-2-yl]-methanesulfonamide], the Ki at human MR is less than 0.5 µM; at glucocorticoid receptor, less than 10 µM.
Regarding `Oc1cncc(C=C2c3ccccc3CCc3ccccc32)c1` [Example 236, 5-(10,11-Dihydro-dibenzo[a,d]cyclohepten-5-ylidenemethyl)pyridin-3-ol], the Ki at human MR and at glucocorticoid receptor was less than 0.5 µM throughout.
As to `C(=C1c2ccccc2CCc2ccccc21)c1cn[nH]c1` [Example 237, 4-(10,11-Dihydro-dibenzo[a,d]cyclohepten-5-ylidenemethyl)-1H-pyrazole], the Ki is less than 0.5 µM on human MR and less than 10 µM at glucocorticoid receptor.
Take `CS(=O)(=O)Nc1cccc(/C=C2\c3ccccc3CCc3cccnc32)c1` [Example 249, (E)-N-[3-(5,6-Dihydro-benzo[5,6]cyclohepta[1,2-b]pyridin-11-ylidenemethyl)-phenyl]-methanesulfonamide]: the inhibition constant Ki on human MR and at glucocorticoid receptor was less than 0.5 µM each time.
As to `CS(=O)(=O)Nc1cccc(/C=C2/c3ccccc3CCc3ncccc32)c1` [Example 251, (Z)-N-[3-(10,11-Dihydro-benzo[4,5]cyclohepta[1,2-b]pyridin-5-ylidenemethyl)-phenyl]-methanesulfonamide], the Ki at human MR and at glucocorticoid receptor was less than 0.5 µM throughout.
With `CS(=O)(=O)Nc1cccc(/C=C2\c3ccccc3CCc3ncccc32)c1` [Example 253, (E)-N-[3-(10,11-Dihydro-benzo[4,5]cyclohepta[1,2-b]pyridin-5-ylidenemethyl)-phenyl]-methanesulfonamide], the Ki on human MR and at glucocorticoid receptor was less than 0.5 µM throughout.
For the compound `Oc1cccc(/C=C2\c3ccccc3CCc3ncccc32)c1` [Example 254, (E)-3-(10,11-Dihydro-benzo[4,5]cyclohepta[1,2-b]pyridin-5-ylidenemethyl)-phenol], the Ki at human MR and on glucocorticoid receptor was less than 0.5 µM each time.
For `CS(=O)(=O)Nc1cccc(C=C2c3ccccc3C3C(c4ccccc42)C3(F)F)c1` (stereo not drawn) [Example 255, N-[3-(8,8-Difluoro-4-ylidinemethyl-2,3,5,6-dibenzobicyclo[5.1.0]octane)-phenyl]-methanesulfonamide], the Ki at human MR and on glucocorticoid receptor was less than 0.5 µM each time.
For `Oc1cccc(C=C2c3ccccc3C3C(c4ccccc42)C3(F)F)c1` (stereo not drawn) [Example 256], the Ki on human MR is less than 0.5 µM; on glucocorticoid receptor it was less than 1 µM.
In the same order, the values of `Oc1cccc(C=C2c3ccccc3C3CC3c3ccccc32)c1` (stereo not drawn) [Example 258] are less than 0.5 µM and less than 0.5 µM.
Take `CS(=O)(=O)Nc1cccc(/C=C2\c3ccccc3NC(=O)c3ccccc32)c1` [Example 261, N-[3-(6-Oxo-5,6-dihydro-dibenzo[b,e]azepin-11-ylidenemethyl)-phenyl]-methanesulfonamide]: the Ki on human MR and on glucocorticoid receptor was less than 0.5 µM each time.
For `CS(=O)(=O)Nc1cccc(/C=C2\c3ccccc3CSc3ccccc32)c1` [Example 262, N-[3-(11H-10-Thia-dibenzo[a,d]cyclohepten-5-ylidenemethyl)-phenyl]-methanesulfonamide], the inhibition constant (Ki) at human MR and at glucocorticoid receptor was less than 0.5 µM throughout.
Take `CS(=O)(=O)Nc1cccc(/C=C2\c3ccccc3C[S+]([O-])c3ccccc32)c1` (stereo not drawn) [Example 263, N-[3-(10-Oxo-10,11-dihydro-10λ^4-thia-dibenzo[a,d]cyclohepten-5-ylidenemethyl)-phenyl]-methanesulfonamide]: the inhibitory constant (Ki) on human MR was less than 0.5 µM; at glucocorticoid receptor it was less than 1 µM.

Values taken from patent publication US20060063759A1, “Tricyclic steroid hormone nuclear receptor modulators” (priority 2002, published 2006).
